Key:
[1] = target: T1, rPanx1 (Rattus norvegicus Pannexin-1) expressed in 293T cells (Rattus norvegicus, UniProt P60570); assay: Whole-cell patch-clamp of Panx1 currents in transfected 293T cells; assay type: cell-based, Homo sapiens
T1 construct: expressed in transfected cells; host or cells: Human embryonic kidney-293T cells (ATCC), transient Lipofectamine 2000 transfection
Protocol: To further compare the effects of probenecid, Compounds 1 and 5 on Pannexin-1 channels […] Panx-1 was expressed in embryonic kidney-293T cells (293T) and channel activity was assessed at various doses of each compound.
Rattus norvegicus Pannexin-1 (rPanx1) complementary DNA (cDNA) was cloned between BamHI and SalI sites in a pRK5 expression vector (pRK5-rPanx1). Enhanced green fluorescent protein (EGFP) plasmid (pEGFP-C1) was commercially purchased (addgene).
Human embryonic kidney-293T cells (293T) were purchased from ATCC and routinely maintained in the laboratory. Adherent 293T cells were grown in Dulbecco's modified Eagle's medium (Thermo Fisher) supplemented with 10% fetal bovine serum (Thermo Fisher) and 1% penicillin-streptomycin (10,000 U/mL; Thermo Fisher) at 37° C. in a 5% CO2 humidified growth incubator. 293T cells between the passages 6-20 were used for experiments. For patch-clamp recordings, 293T cells reaching 40-60% confluency on 35 mm culture plates were transiently transfected using Lipofectamine 2000 (Thermo Fisher) 36-48 hours before experiments, using the manufacturer's protocol. 293T cells were transfected with 2.5 μg pRK5-rPanx1 and 0.5 μg pEGFP-C1 cDNAs at a mixed ratio of 5:1 to identify positively transfected cells.
On the day of experiments, transiently transfected 293T cells overexpressing rPanx1 and EGFP cDNAs were seeded onto poly-d-lysine coated glass coverslips at least 2 hours before recordings. […] Data was acquired using Clampex (v.10) software and an Axon Digidata 1550A digitizer (Axon Instruments) at 10 kHz, with currents analyzed offline in Clampfit software (v.10.7). […]
293T cells were voltage clamped at −60 mV in whole-cell configuration and exposed to a 300 ms voltage ramp (−80 to +80 mV) before stepping back to −60 mV to record rPanx1 voltage-sensitive currents. Baseline currents were first measured in extracellular solution before perfusion of drug compounds in incrementally increasing concentrations. […]

Panx1 channel = target: T2, Panx1 channel (Mus musculus, UniProt Q9JIP4); assay: YO-PRO-1 dye uptake assay in BV-2 microglia-like cells (BzATP stimulation); assay type: cell-based; conditions: BV-2 cells; pre-treatment; concentration not given
T2 construct: endogenous in cells; host or cells: BV-2 microglia-like cells
Protocol: After plating into 96 well plates, cell culture media was removed and BV-2 cells were incubated in extracellular solution (ECS) (140 mM NaCl, 4.5 mM KCl, 1.3 mM CaCl2, 10 mM HEPES, and 33 mM glucose; pH7.35, osmolarity 315 mOsm) containing YO-PRO-1 dye (2.5 μM, Invitrogen). After a 5 minute baseline recording, cells were stimulated with 3′-O-(4-benzoyl)benzoyl adenosine 5′-triphosphate (BzATP) (150 μM, Toronto Research Chemicals) and dye-uptake was recorded for 30 minutes. Cell viability was assessed immediately after the 30 minute recording by application of ionomycin (1 μM, Sigma). […] YO-PRO-1 fluorescent emission (491/509) was detected using a FilterMax F5 plate reader (Molecular Devices). Drugs used include (−)-norepinephrine (100 pM-1 μM, Sigma), probenecid (1 mM, Life Technologies), and Compound 1 (10 nM, Derksen et al). Drugs were bath applied in ECS containing YO-PRO-1 dye and incubated at 37° C. for 10 minutes prior to BzATP stimulation. Fluorescent emission at 30 minutes post-BzATP was calculated as an average of the entire imaging field as percent change from baseline, and responses at 30 minutes were averaged over multiple independent experiments. Individual traces of BV-2 YO-PRO-1 dye uptake were taken at 10 minute intervals and represent the average response of all BV-2 cells in the recorded view from a subset of experiments.
BV-2 microglia-like cells were maintained in DMEM (Gibco) containing 5% fetal bovine serum (Gibco) and 1% penicillin-streptomycin (Gibco) with 5% CO2.
The compounds tested were designed to more readily penetrate the blood brain barrier and were therefore predicted to require a lower dose to produce similar effects. Prior to testing the compounds in animals, the compounds were first tested in BV2 microglia-like cells using the YO-PRO-1 Dye Uptake Assay. By using this assay, Panx1 channel activity in response to BzATP stimulation of P2X7, an upstream receptor that causes Panx1 pore formation can be assessed. YO-PRO-1 is a large molecular weight dye that can only enter the cell through large pore ion channels such as Panx1, therefore its uptake correlates with Panx1 channel opening. BzATP stimulation causes a significant increase in YO-PRO-1 dye uptake in cells pre-treated with ECS and vehicle solution (0.1% DMSO) (FIG. 1, B).

[2] = background statement; cited from earlier work
C57BL/6J mice [3] = assay: Naloxone-precipitated morphine withdrawal, composite withdrawal score; assay type: in vivo; conditions: 50 mg/kg, 30 minutes before withdrawal
C57BL/6J mice [4] = conditions: background statement; pharmacological blockade of Panx1; cited from earlier work
C57BL/6J mice [5] = assay: Naloxone-precipitated morphine withdrawal, composite withdrawal score; assay type: in vivo; conditions: 50 mg/kg i.p., 60 minutes prior to naloxone
Protocol: Adult male C57BL/6J (7-9 weeks) mice were used. Mice were housed under 12/12 hour light/dark cycles with ad libitum access to food and water. Mice were randomly allocated to different test groups. All experiments were approved by the University of Calgary Animal Care Committee and are in accordance with the guidelines of the Canadian Council on Animal Care.
Morphine sulfate (MS, PCCA) prepared in 0.9% sterile saline solution was injected i.p. into male C57BLJ6J (20-30g) mice. Mice received ascending doses of morphine (i.p.) at 8 hours intervals: day 1, 10mg/kg; day 2, 20 mg/kg; day 3, 30 mg/kg; day 4, 40mg/kg. On day 5, mice received a morning injection of morphine (50 mg/kg). A subset of mice received probenecid (15, 25, and 50 mg/kg i.p., Invitrogen) or Compound 1 (0.1, 0.5 and 1 mg/kg) 1 hour following morphine. Mice then received i.p. naloxone (2 mg/kg, naloxone hydrochloride dihydrate, Sigma) 2 hours following morphine to rapidly induce opioid withdrawal. Control mice received equivalent volumes of 0.9% saline or appropriate vehicle solution (0.1% DMSO in saline) and were challenged with naloxone on day 5. Withdrawal behaviors were then scored for 30 minutes post naloxone injection. Behaviors were scored for occurrence and then scaled for severity at 5-minute intervals. Behaviors that were assigned a standardized score between 0-3 depending on severity were jumping, headshakes, wet-dog shakes, chewing/licking, and teeth chattering. Behaviors that were scored 1 point for presence during a 5-minute interval include piloerection and tremors/twitching. The mice were then weighed following the 30 minutes, and the weight difference was assigned a standardized score dependent on the weight change between 0-3 as well. The scaled and present/absent signs were compiled over the 30 minutes to produce a composite withdrawal score.
All data are presented as the mean±standard error mean (s.e.m), and each circle represents an individual animal or experiment. Tests of statistical difference were performed with GraphPad Prism 6 using either an ordinary one-way ANOVA with posthoc Dunnet test, or a two-way ANOVA with post hoc Sidak test. Sample sizes are consistent with those reported in similar studies and provide sufficient power to detect changes with the appropriate statistical analysis. For all experiments, a criterion a level was set at 0.05.

T2 sequence (Q9JIP4 whole entry): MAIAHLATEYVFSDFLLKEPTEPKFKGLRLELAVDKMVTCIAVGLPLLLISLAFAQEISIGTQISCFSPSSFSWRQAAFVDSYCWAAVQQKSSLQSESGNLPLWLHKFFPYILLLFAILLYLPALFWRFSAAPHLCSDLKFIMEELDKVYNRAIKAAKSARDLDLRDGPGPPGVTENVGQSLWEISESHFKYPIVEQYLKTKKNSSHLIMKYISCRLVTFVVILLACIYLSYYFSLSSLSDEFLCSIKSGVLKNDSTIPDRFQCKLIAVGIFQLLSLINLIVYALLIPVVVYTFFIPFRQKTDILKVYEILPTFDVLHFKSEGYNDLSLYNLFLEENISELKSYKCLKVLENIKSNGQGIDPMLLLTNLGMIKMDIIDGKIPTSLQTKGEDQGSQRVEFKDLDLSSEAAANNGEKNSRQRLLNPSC
T1 sequence (P60570 whole entry): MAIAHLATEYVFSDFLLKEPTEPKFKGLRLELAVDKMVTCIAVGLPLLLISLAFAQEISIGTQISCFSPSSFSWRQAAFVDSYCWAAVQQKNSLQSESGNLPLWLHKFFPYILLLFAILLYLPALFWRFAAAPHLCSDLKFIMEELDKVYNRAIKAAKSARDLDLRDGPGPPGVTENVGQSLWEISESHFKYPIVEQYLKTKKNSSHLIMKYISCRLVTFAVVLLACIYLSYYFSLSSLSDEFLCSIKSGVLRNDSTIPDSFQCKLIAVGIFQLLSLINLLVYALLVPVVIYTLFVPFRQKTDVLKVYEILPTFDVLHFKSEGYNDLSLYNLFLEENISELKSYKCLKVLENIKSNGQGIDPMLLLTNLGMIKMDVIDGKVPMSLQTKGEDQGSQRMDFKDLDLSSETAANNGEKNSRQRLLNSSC

SMILES: CCCN(CCC)S(=O)(=O)c1ccc(-c2cn[nH]c2)cc1 [Compound 5]
- Panx1 inhibitory potency relative to Probenecid (patch-clamp) ([1]; voltage ramp -80 to +80 mV, various doses): more potent
- Panx1 channel activity (BzATP-stimulated YO-PRO-1 dye uptake) (Panx1 channel): significantly blocked

SMILES: CCCN(CCC)S(=O)(=O)c1ccc(-c2cnc(N(C)C)nc2)cc1 [Compound 6]
- Panx1 channel activity (BzATP-stimulated YO-PRO-1 dye uptake) (Panx1 channel): significantly blocked

SMILES: CCCN(CCC)S(=O)(=O)c1ccc(-c2ccnc(N3CCNCC3)c2)cc1 [Compound 4]
- Panx1 channel activity (BzATP-stimulated YO-PRO-1 dye uptake) (Panx1 channel): significantly blocked

SMILES: CCCN(CCC)S(=O)(=O)c1ccc(-c2ccc3[nH]ncc3c2)cc1 [Compound 3, 4-(1H-indazol-5-yl)-N,N-dipropylbenzenesulfonamide]
- Panx1 channel activity (BzATP-stimulated YO-PRO-1 dye uptake) (Panx1 channel): significantly blocked

SMILES: CN(C)S(=O)(=O)c1ccc(C(O)(C(F)(F)F)C(F)(F)F)cc1 [Compound 2, 4-(1,1,1,3,3,3-hexafluoro-2-hydroxypropan-2-yl)-N,N-dimethylbenzenesulfonamide]
- Panx1 channel activity (BzATP-stimulated YO-PRO-1 dye uptake) (Panx1 channel): significantly blocked

SMILES: CCCN(CCC)S(=O)(=O)c1ccc(C(=O)O)cc1 [probenecid, reference compound]
- Solubility [2]: poor solubility
- Withdrawal behaviors (C57BL/6J mice [3]): not effective
- Withdrawal behaviors in mice (C57BL/6J mice [4]): ameliorated withdrawal behaviors
- Composite withdrawal score (C57BL/6J mice [5]): significantly reduced withdrawal score
- Block of Panx1 (inhibition of transfected current) ([1]; maximum doses): 100%

Reference: patent US20240166596A1, “SULFAMOYL BENZENE DERIVATIVES AND USES THEREOF” (AphioTx Inc., priority 2021, published 2024)
